Assay results from patent US11149052B2, “2′3′-cyclic dinucleotides” (Institute of Organic Chemistry and Biochemistry, ASCR, V.V.I, priority 2018, dated 2021).

Assays:
[1] = biological target: human wild type STING (WT STING) (Homo sapiens, UniProt Q86WV6, H232R); experiment: Digitonin assay using 293T wtSTING-FL reporter cells (ISRE firefly luciferase reporter); assay type: cell-based; conditions: 293T wtSTING-FL cells; 30 min in Digitonin buffer, then 5 hours; luciferase read-out; 8-point dose-response curve; read-out: Digitonin assay EC50 (μmol · l^−1) WT STING
Excerpt: Two complementary oligonucleotides of the sequence […] […] […] […] […] The oligonucleotides were mixed in equal molar amounts, hybridized, and cleaved by restriction endonucleases HindIII (cat. #. R0104S, NEB, Ipswich, USA) and BglII (cat. #R0144S, NEB, Ipswich, USA). Ultimately, they were ligated into plasmid pGL4.27 (cat. #E6651, Promega, Madison, USA) linearized with the same enzymes. As result the sequence with four ISRE sites was placed upstream of the minimum promoter of firefly luciferase reporter gene.
After 5 minutes incubation at room temperature (RT), 250 μL of the mixture was added dropwise to the cells in one well.
Transfected cells were seeded onto poly-D-lysine coated six well plates at density 50,000 cells per 1 cm^2 in DMEM medium with high glucose containing 10% heat inactivated FBS, 30 μg/mL blasticidin (cat. #ant-bl-05, InvivoGen, San Diego, USA), 0.06 mg/ml Penicillin G and 0.1 mg/ml Streptomycin Sulfate (both cat. #. L0018, Biowest, Riverside, USA). The medium was replenished every 3-4 days until visible colonies of cells resistant to blasticidin were formed.
Blasticidin resistant cells stably expressing WT STING were further transfected with […] plasmid following the same procedure as described above. […] Homogeneous culture of stably double transfected cells was prepared by limiting dilution of cells in 96 well plates and wells with cells were selected that originated from a single cell.
The medium was removed next day and three fold serial dilutions of compounds in Digitonin buffer containing 50 mmol·l^−1 HEPES (cat. #H3375, Sigma Aldrich, Czech Republic) pH 7.0, 100 mmol·l^−1 KCl, 3 mmol·l^−1 MgCl2, 0.1 mmol·l^−1 DTT (cat. #D0632, Sigma Aldrich, Czech Republic), 85 mmol·l^−1 Sucrose (cat. #S7903, Sigma Aldrich, Czech Republic), 0.2% BSA (cat. #A2153, Sigma Aldrich, Czech Republic), 1 mmol·l^−1 ATP (cat. #A1852, Sigma Aldrich, Czech Republic), 0.1 mmol·l^−1 GTP (cat. #G8877, Sigma Aldrich, Czech Republic), and 10 μg/mL Digitonin A (cat. #D141, Sigma Aldrich, Czech Republic) were added to the cells. The buffer was removed after 30 minutes incubation at 37° C. with 5% CO2, the cells were washed once with 100 μl of cultivation medium, and 100 IA of medium was added to each well. The plates with cells were incubated for 5 hours at 37° C. with 5% CO2, 50 μl of the medium was removed and 30 μl of ONE-Glo™ Luciferase Assay System reagent (cat. #E6120, Promega, Madison, USA) was added to each well. Luminesce was read on Synergy H1 (Biotek, Winooski, USA).

[2] = biological target: T1, WT STING (truncated human WT STING protein) (Homo sapiens, UniProt Q86WV6, H232R); experiment: Differential Scanning Fluorimetry with WT STING; assay type: binding; conditions: thermal shift vs apoprotein, 150 μM CDN, 0.1 mg/ml STING protein, SYPRO Orange; for ΔTm at 150 µM: read-out: DSF ΔTm (° C.) WT STING
T1 construct: truncated human WT STING or AQ STING (amino acid residues 140-343); 8xHis (N, cleaved yes); SUMO (N, cleaved yes); made in house; host or cells: E. coli Rosetta-gami B (DE3)
Experimental: (§1) Purified PCR products were cleaved with restriction enzymes BamHI (cat. #R0136S, NEB, Ipswich, USA) and NotI (cat. #R0189S, NEB, Ipswich, USA) and cloned into the pSUMO vector linearized with the identical enzymes.
(§2) DNase I (cat. #D5025, Sigma Aldrich, Czech Republic) and RNase A (cat. #R6513, Sigma Aldrich, Czech Republic) were added (final concentration […]) together with MgCl2 (final concentration 5 mmol·l^−1) to the homogenate and bacteria were lysed using French Press G-M™ High-Pressure Cell Press Homogenizer (1500 psi, 3 cycles). […] The resin was poured into a chromatography column, washed with 50 ml buffer A (50 mmol·l^−1 TrisCl (pH 8.0), 800 mmol·l^−1 NaCl, 3 mmol·l^−1β-mercaptoethanol; 10% glycerol; 20 mmol·l^−1 imidazole) and 8-His-SUMO tagged STING proteins were eluted with 15 ml buffer A containing 300 mmol·l^−1 imidazole. […] Proteins were concentrated with Amicon® Ultra-15 10 K device (cat. #UFC901008, Merck Millipore, Billerica, USA) and flash frozen in liquid N2.
(§3) Differential Scanning Fluorimetry with WT STING and AQ STING
(§4) 20 μL solutions of the reaction mixtures were pipetted in triplicates into 96 well optical reaction plates and thermal denaturation of samples were performed on real time PCR cycler (LightCycler® 480 Instrument II—Roche, Base^1, Switzerland). The first derivative of the thermal denaturation curves was performed to calculate denaturing temperatures of STING-CDN complexes and STING apoproteins. The thermal shift for each CDN was calculated by subtracting the average denaturing temperature of STING apoprotein from the average denaturing temperature of STING CDN complex.

[3] = biological target: T2, AQ STING (truncated human STING G230A-R293Q allelic form) (Homo sapiens, UniProt Q86WV6, G230A/H232R/R293Q); experiment: Differential Scanning Fluorimetry with AQ STING; assay type: binding; conditions: thermal shift vs apoprotein, 150 μM CDN, 0.1 mg/ml STING protein, SYPRO Orange; for ΔTm at 150 µM: read-out: DSF ΔTm (° C.) AQ STING
T2 construct: truncated human WT STING or AQ STING (amino acid residues 140-343); 8xHis (N, cleaved yes); SUMO (N, cleaved yes); made in house; host or cells: E. coli Rosetta-gami B (DE3)
Experimental: as §1, §2, §3, §4

T1 sequence (Q86WV6 140-343 H232R): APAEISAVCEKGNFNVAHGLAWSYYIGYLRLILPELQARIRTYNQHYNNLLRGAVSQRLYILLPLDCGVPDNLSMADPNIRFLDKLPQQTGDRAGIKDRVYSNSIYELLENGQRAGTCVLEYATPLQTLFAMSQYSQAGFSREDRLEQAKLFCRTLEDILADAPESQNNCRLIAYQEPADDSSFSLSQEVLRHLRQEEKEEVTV
T2 sequence (Q86WV6 140-343 G230A/H232R/R293Q): as the sequence (Q86WV6 140-343 H232R) above, with G91A, R154Q counted along it
Chain of human wild type STING (WT STING) (Q86WV6 whole entry H232R): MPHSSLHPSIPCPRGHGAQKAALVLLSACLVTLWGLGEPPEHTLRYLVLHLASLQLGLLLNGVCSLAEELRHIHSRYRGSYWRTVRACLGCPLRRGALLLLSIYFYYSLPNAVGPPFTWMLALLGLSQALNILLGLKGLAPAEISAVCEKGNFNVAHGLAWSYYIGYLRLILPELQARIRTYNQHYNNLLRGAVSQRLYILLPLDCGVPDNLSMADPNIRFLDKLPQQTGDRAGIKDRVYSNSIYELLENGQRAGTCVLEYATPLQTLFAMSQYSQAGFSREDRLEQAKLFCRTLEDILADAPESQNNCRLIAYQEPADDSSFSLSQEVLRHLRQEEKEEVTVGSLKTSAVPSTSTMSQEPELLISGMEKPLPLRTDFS

Row | Structure (SMILES) | EC50 [1] [nM] | DSF ΔTm (° C.) WT STING [2] [°C] | DSF ΔTm (° C.) AQ STING [3] [°C] | ΔTm at 150 µM [2] [°C] | ΔTm at 150 µM [3] [°C]
1 | Nc1ncnc2c1ncn2[C@@H]1O[C@@H]2COP(=O)(O)O[C@H]3[C@@H](O)[C@H](n4cnc5c(N)ncnc54)O[C@@H]3COP(=O)(O)O[C@H]2[C@H]1O [3′3′-c-di-AMP, reference compound] | 300 | 2.6 | 9.3 |  | 
2 | Nc1nc2c(ncn2[C@@H]2O[C@@H]3COP(=O)(O)CO[C@H]4C[C@H](n5cnc6c(N)ncnc65)O[C@@H]4COP(=O)(O)O[C@@H]2[C@@H]3F)c(=O)[nH]1 [Example 20, (1S,6R,8R,10S,16R,18R,19R)-18-(2-amino-6-oxo-6,9-dihydro-1H-purin-9-yl)-8-(6-amino-9H-purin-9-yl)-19-fluoro-3,13-dihydroxy-2,4,7,11,14,17-hexaoxa-3λ^5,13λ^5-diphosphatricyclo[14.2.1.0^6,^10]nonadecane-3,13-dione] | 5 |  |  | 17.2 | 23.5
3 | Nc1ncnc2c1ncn2[C@@H]1O[C@@H]2COP(=O)(O)O[C@@H]3[C@H](F)[C@@H](COP(=O)(O)CO[C@H]2[C@H]1F)O[C@H]3n1cnc2c(N)ncnc21 [Example 22, (1S,6R,8R,9R,10R,16R,18R,19R)-8,18-bis(6-amino-9H-purin-9-yl)-9,19-difluoro-3,13-dihydroxy-2,4,7,11,14,17-hexaoxa-3λ^5,13λ^5-diphosphatricyclo[14.2.1.0^6,^10]nonadecane-3,13-dione] | 15 |  |  | 9 | 11.1
4 | Nc1ncnc2c1ncn2[C@@H]1O[C@@H]2COP(=O)(O)O[C@@H]3[C@H](O)[C@@H](COP(=O)(O)CO[C@H]2[C@@H]1O)O[C@H]3n1cnc2c(N)ncnc21 [Example 11, (1R,6R,8R,9S,10S,16R,18R,19R)-8,18-bis(6-amino-9H-purin-9-yl)-3,9,13,19-tetrahydroxy-2,4,7,11,14,17-hexaoxa-3λ^5,13λ^5-diphosphatricyclo[14.2.1.0^6,^10]nonadecane-3,13-dione] | 2500 |  |  | 2.3 | 9.1
5 | Nc1nc2c(ncn2[C@@H]2O[C@@H]3COP(=O)(O)O[C@@H]4[C@H](O)[C@@H](COP(=O)(O)CO[C@H]3[C@H]2O)O[C@H]4n2cnc3c(N)ncnc32)c(=O)[nH]1 [Example 2, (1R,6R,8R,9R,10S,16R,18R,19R)-8-(2-amino-6-oxo-6,9-dihydro-1H-purin-9-yl)-18-(6-amino-9H-purin-9-yl)-3,9,13,19-tetrahydroxy-2,4,7,11,14,17-hexaoxa-3λ^5,13λ^5-diphosphatricyclo[14.2.1.0^6,^10]nonadecane-3,13-dione] | 1200 |  |  | 1.4 | 8.8
6 | Nc1nc2c(ncn2[C@@H]2O[C@@H]3COP(=O)(O)CO[C@H]4C[C@H](n5cnc6c(N)ncnc65)O[C@@H]4COP(=O)(O)O[C@@H]2[C@@H]3O)c(=O)[nH]1 [Example 15, (1R,6R,8R,10S,16R,18R,19R)-18-(2-amino-6-oxo-6,9-dihydro-1H-purin-9-yl)-8-(6-amino-9H-purin-9-yl)-3,13,19-trihydroxy-2,4,7,11,14,17-hexaoxa-3λ^5,13λ^5-diphosphatricyclo[14.2.1.0^6,^10]nonadecane-3,13-dione] | 10 |  |  | 14.4 | 19.2
7 | Nc1nc2c(ncn2[C@@H]2O[C@@H]3COP(=O)(O)CO[C@H]4[C@@H](F)[C@H](n5cnc6c(N)ncnc65)O[C@@H]4COP(=O)(O)O[C@@H]2[C@@H]3F)c(=O)[nH]1 [Example 17, (1S,6R,8R,9R,10R,16R,18R,19R)-18-(2-amino-6-oxo-6,9-dihydro-1H-purin-9-yl)-8-(6-amino-9H-purin-9-yl)-9,19-difluoro-3,13-dihydroxy-2,4,7,11,14,17-hexaoxa-3λ^5,13λ^5-diphosphatricyclo[14.2.1.0^6,^10]nonadecane-3,13-dione] | 20 |  |  | 21.7 | 27.3
8 | Nc1ncnc2c1ncn2[C@@H]1O[C@@H]2COP(=O)(O)O[C@@H]3[C@H](O)[C@@H](COP(=O)(O)CO[C@H]2[C@H]1O)O[C@H]3n1cnc2c(N)ncnc21 [Example 8, (1R,6R,8R,9R,10S,16R,18R,19R)-8,18-bis(6-amino-9H-purin-9-yl)-3,9,13,19-tetrahydroxy-2,4,7,11,14,17-hexaoxa-3λ^5,13λ^5-diphosphatricyclo[14.2.1.0^6,^10]nonadecane-3,13-dione] | 400 |  |  | 3 | 9.4
9 | Nc1nc2c(ncn2[C@@H]2O[C@@H]3COP(=O)(O)O[C@H]4[C@@H](O)[C@H](n5cnc6c(N)ncnc65)O[C@@H]4COP(=O)(O)CO[C@@H]2[C@@H]3O)c(=O)[nH]1 [Example 3, (1R,6S,7R,8R,10R,16R,17R,19R)-17-(2-amino-6-oxo-6,9-dihydro-1H-purin-9-yl)-8-(6-amino-9H-purin-9-yl)-4,7,13,19-tetrahydroxy-3,5,9,12,15,18-hexaoxa-4λ^5,13λ^5-diphosphatricyclo[14.2.1.0^6,^10]nonadecane-4,13-dione] | 3000 |  |  | 0.8 | 7.2
10 | Nc1nc2c(ncn2[C@@H]2O[C@@H]3COP(=O)(O)O[C@@H]4[C@H](O)[C@@H](COP(=O)(O)O[C@@H]2[C@@H]3O)O[C@H]4n2cnc3c(N)ncnc32)c(=O)[nH]1 [2′2′-cGAMP, reference compound] | 30 | 11.5 | 19.4 |  | 
11 | Nc1nc2c(ncn2[C@@H]2O[C@@H]3COP(=O)(O)CO[C@H]4[C@@H](O)[C@H](n5cnc6c(N)ncnc65)O[C@@H]4COP(=O)(O)O[C@@H]2[C@@H]3F)c(=O)[nH]1 [Example 19, (1S,6R,8R,9R,10S,16R,18R,19R)-18-(2-amino-6-oxo-6,9-dihydro-1H-purin-9-yl)-8-(6-amino-9H-purin-9-yl)-19-fluoro-3,9,13-trihydroxy-2,4,7,11,14,17-hexaoxa-3λ^5,13λ^5-diphosphatricyclo[14.2.1.0^6,^10]nonadecane-3,13-dione] | 2 |  |  | 18.2 | 25.1
